Read-outs that look alike come from different tables or passages of the source.

Experiment [1] has as its target T1, h P2X2/3 (Homo sapiens, UniProt P56373+Q9UBL9).
T1 construct: host or cells: cells not described; same protocol as the P2X3 assay
T1 sequence (P56373 1-397): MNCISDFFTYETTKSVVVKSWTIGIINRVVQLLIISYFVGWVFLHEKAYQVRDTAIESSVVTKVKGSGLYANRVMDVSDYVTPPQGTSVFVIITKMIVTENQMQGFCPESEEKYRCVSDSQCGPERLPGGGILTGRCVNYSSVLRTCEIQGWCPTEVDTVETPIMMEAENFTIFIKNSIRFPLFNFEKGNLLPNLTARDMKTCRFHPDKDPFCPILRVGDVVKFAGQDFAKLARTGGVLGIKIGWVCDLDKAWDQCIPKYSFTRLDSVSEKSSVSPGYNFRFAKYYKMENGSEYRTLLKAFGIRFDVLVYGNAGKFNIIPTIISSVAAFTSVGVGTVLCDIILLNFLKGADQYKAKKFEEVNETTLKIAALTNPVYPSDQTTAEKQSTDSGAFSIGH
T1 sequence (Q9UBL9 1-471): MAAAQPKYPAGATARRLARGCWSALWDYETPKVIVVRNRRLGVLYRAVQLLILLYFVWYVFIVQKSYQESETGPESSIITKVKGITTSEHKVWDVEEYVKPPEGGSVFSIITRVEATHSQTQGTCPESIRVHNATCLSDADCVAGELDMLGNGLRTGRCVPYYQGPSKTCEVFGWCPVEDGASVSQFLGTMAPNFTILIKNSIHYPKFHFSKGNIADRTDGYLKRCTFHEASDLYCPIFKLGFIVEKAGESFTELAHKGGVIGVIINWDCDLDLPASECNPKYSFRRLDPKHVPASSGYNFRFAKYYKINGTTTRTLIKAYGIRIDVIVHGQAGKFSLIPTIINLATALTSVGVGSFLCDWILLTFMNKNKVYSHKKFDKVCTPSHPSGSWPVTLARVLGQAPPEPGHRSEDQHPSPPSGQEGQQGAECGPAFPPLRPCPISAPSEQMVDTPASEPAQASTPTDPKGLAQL
Nature of the experiment: In vitro electrophysiology assay for P2X2/3 (same protocol as the P2X3 assay, 10 μM ATP as agonist). It counts as cell-based. Particulars: Table 3; agonist 10 μM ATP, mean current amplitude seven seconds after agonist; read-out: h P2X2/3 (pIC50 range of activity) (converted). As to the method: Cells expressing P2X3 receptors were grown according to standard practice and maintained at 37° C. in a 5% humidified CO2 atmosphere. The cells were seeded into T175 flask 2 days prior to the day of the assay and dissociated from the flasks using TrypLE when grown to confluence of 80-90%. The dissociated cells were resuspended in serum free media at a cell density of 3×10^6 cells/ml and loaded onto the Sophion Qube automated patch-clamp system. The extracellular assay buffer contained 145 mM NaCl, 4 mM KCl, 2 mM CaCl2, 1 mM MgCl2, 10 mM HEPES, and 10 mM glucose at pH 7.4. The intracellular assay solution contained 140 mM CsF, 10 mM NaCl, 10 mM EGTA, 10 mM HEPES at pH 7.2. Agonist stock solutions were prepared in H2O and diluted in bath solution prior to use. All antagonists were prepared as 10 mM stock solutions in DMSO and diluted in bath solution prior to use. All experiments were performed under the whole-cell patch clamp configuration at room temperature with 384 individual cells being voltage clamped at −60 mV simultaneously on the Sophion Qube instrument. Two baseline responses were established with the application of α,β-MeATP (800 nM), with the subsequent agonist applications being washed out using extracellular assay buffer containing 0.5 U/ml apyrase. Following the second agonist application, antagonist was incubated in the absence of α,β-MeATP for 10 minutes. After antagonist preincubation, 800 nM α,β-MeATP and antagonist were co-administered to determine the inhibitory effect of the antagonist. One concentration of an antagonist was assessed against a single cell, with different concentrations of the antagonist applied to other cells on the 384 recording substrate. The control P2X3 current amplitude was taken from the peak current amplitude from the second agonist response prior to preincubation with antagonist. […]
The same assay protocol was used for the P2X2/3 assay as the P2X3 assay with two modifications: 1) 10 μM ATP was used as the agonist; and 2) the mean current amplitude was measured seven seconds after the application of agonist.

Experiment [2] concerns the target T2, h P2X3 (Homo sapiens, UniProt P56373).
T2 sequence (P56373 1-397): T1 sequence (P56373 1-397)
The experiment in a line: In vitro electrophysiology assay for P2X3 (Sophion Qube automated whole-cell patch clamp). The experiment is classed as cell-based. Conditions: for h P2X3 (pIC50 range of activity): Table 3. As to the method:
In Vitro Electrophysiology Assay for P2X3
Cells expressing P2X3 receptors were grown according to standard practice and maintained at 37° C. in a 5% humidified CO2 atmosphere. The cells were seeded into T175 flask 2 days prior to the day of the assay and dissociated from the flasks using TrypLE when grown to confluence of 80-90%. The dissociated cells were resuspended in serum free media at a cell density of 3×10^6 cells/ml and loaded onto the Sophion Qube automated patch-clamp system. The extracellular assay buffer contained 145 mM NaCl, 4 mM KCl, 2 mM CaCl2, 1 mM MgCl2, 10 mM HEPES, and 10 mM glucose at pH 7.4. The intracellular assay solution contained 140 mM CsF, 10 mM NaCl, 10 mM EGTA, 10 mM HEPES at pH 7.2. Agonist stock solutions were prepared in H2O and diluted in bath solution prior to use. All antagonists were prepared as 10 mM stock solutions in DMSO and diluted in bath solution prior to use. All experiments were performed under the whole-cell patch clamp configuration at room temperature with 384 individual cells being voltage clamped at −60 mV simultaneously on the Sophion Qube instrument. Two baseline responses were established with the application of α,β-MeATP (800 nM), with the subsequent agonist applications being washed out using extracellular assay buffer containing 0.5 U/ml apyrase. Following the second agonist application, antagonist was incubated in the absence of α,β-MeATP for 10 minutes. After antagonist preincubation, 800 nM α,β-MeATP and antagonist were co-administered to determine the inhibitory effect of the antagonist. One concentration of an antagonist was assessed against a single cell, with different concentrations of the antagonist applied to other cells on the 384 recording substrate. The control P2X3 current amplitude was taken from the peak current amplitude from the second agonist response prior to preincubation with antagonist. The peak P2X3 current amplitude in the presence of antagonist was used to calculate the inhibitory effect at each concentration of the antagonist according to the following equation:
Percentage inhibition of P2X3=(P2X3 control peak amplitude−P2X3 antagonist peak amplitude)/P2X3 control peak amplitude)*100
Concentration-response curves were constructed from ten different concentrations with each concentration of antagonist tested on at least two individual cells. The concentration of the antagonist to inhibit P2X3 current by 50% (IC50) was determined by fitting the data with the following equation:
Y=a+[(b−a)/(1+10^((log c−x)d)]
Where ‘a’ is minimum response, ‘b’ is maximum response, ‘c’ is IC50 and ‘d’ is Hill slope.
The results for individual compounds are provided below in Table 2 and are expressed as range of activity.

The mark [3] stands for this setting: Table 2, agonist 800 nM α,β-MeATP, 10 min antagonist preincubation, peak current, read-out: h P2X3 (pIC50 range of activity) (converted).
Setting [4] is: agonist 800 nM α,β-MeATP, peak current.

Take `Cc1ccc(-c2ccc3nncc(N[C@H](C)c4cnc(C(F)(F)F)nc4)c3c2)nc1` [Example 4, 6-(5-Methylpyridin-2-yl)-N-((1R)-1-(2-(trifluoromethyl)pyrimidin-5-yl)ethyl)cinnolin-4-amine]: the IC50 is 0.316 to 3.16 µM in experiment [1] and less than 316 nM in experiment [2] (setting [3]). For the same molecule, in experiment [2] (setting [4]), the “h P2X3 (pIC50 range of activity)” value is on record as “+++ (+++: pIC50 h P2X3 or h P2X2/3 > 6.5)”. As to `Cc1ccc(-c2ccc3nccc(N[C@H](C)c4cnc(C(F)(F)F)nc4)c3c2)nc1` [Example 9, (R)-6-(5-methylpyridin-2-yl)-N-(1-(2-(trifluoromethyl)pyrimidin-5-yl)ethyl) quinolin-4-amine], the IC50 in experiment [2] (setting [3]) was less than 316 nM.

Turning to `Cc1ccc(CNc2cnnc3ccc(-c4ccc(F)cc4)cc23)nn1` [Example 1, 6-(4-Fluorophenyl)-N-((6-methylpyridazin-3-yl)methyl)cinnolin-4-amine], the IC50 in experiment [2] (setting [3]) is less than 316 nM. Still for that read-out and setting: for `Cc1ccc(-c2ccc3nncc(NCc4ccc(C)nn4)c3c2)nc1` [Example 5, N-((6-methylpyridazin-3-yl)methyl)-6-(5-methylpyridin-2-yl)cinnolin-4-amine] the value was less than 316 nM. As for `C[C@@H](Nc1cnnc2ccc(-c3ccc(F)cc3)cc12)c1cnc(C(F)(F)F)nc1` [Example 2, 6-(4-Fluorophenyl)-N-((1R)-1-(2-(trifluoromethyl)pyrimidin-5-yl)ethyl)cinnolin-4-amine], the results for the IC50 in experiment [1] and in experiment [2] (setting [3]) were 0.316 to 3.16 µM and less than 316 nM, respectively. For the same molecule, the “h P2X3 (pIC50 range of activity)” value in experiment [2] (setting [4]) is recorded as “+++ (+++: pIC50 h P2X3 or h P2X2/3 > 6.5)”.

With `Cc1ccc([C@@H](C)Nc2cnnc3ccc(-c4ccc(F)cc4)cc23)nn1` [Example 13, 6-(4-Fluorophenyl)-N-[(1R)-1-(6-methylpyridazin-3-yl)ethyl]cinnolin-4-amine], in experiment [2] (setting [3]), the IC50 is less than 316 nM. On the same count and under the same terms, then `Cc1ccc(-c2ccc3nccc(NCc4ccc(C)nn4)c3c2)nc1` [Example 10, N-((6-methylpyridazin-3-yl)methyl)-6-(5-methylpyridin-2-yl)quinolin-4-amine], with less than 316 nM; and `Cc1ccc(CNc2ccnc3ccc(-c4ccc(F)cc4)cc23)nn1` [Example 11, 6-(4-Fluorophenyl)-N-((6-methylpyridazin-3-yl)methyl)quinolin-4-amine], with less than 316 nM. Consider `COc1cc(-c2ncc(C)cn2)cc2c(N[C@H](C)c3ccc(C)nn3)cnnc12` [Example 8, (R)-8-methoxy-N-(1-(6-methylpyridazin-3-yl)ethyl)-6-(5-methylpyrimidin-2-yl)cinnolin-4-amine], for which the IC50 in experiment [1] is 3.16 to 31.6 µM; in experiment [2] (setting [3]), less than 316 nM. In addition, the “h P2X3 (pIC50 range of activity)” value in experiment [2] (setting [4]) is reported as “+++ (+++: pIC50 h P2X3 or h P2X2/3 > 6.5)”. As for `COc1cc(-c2ccc(F)cc2)cc2c(N[C@H](C)c3ccc(C)nn3)cnnc12` [Example 6, (R)-6-(4-fluorophenyl)-8-methoxy-N-(1-(6-methylpyridazin-3-yl)ethyl)cinnolin-4-amine], in experiment [2] (setting [3]), the IC50 is less than 316 nM. `C[C@@H](Nc1ccnc2ccc(-c3ccc(F)cc3)cc12)c1cnc(C(F)(F)F)nc1` [Example 12, (R)-6-(4-fluorophenyl)-N-(1-(2-(trifluoromethyl)pyrimidin-5-yl)ethyl)quinolin-4-amine]: the IC50 in experiment [2] (setting [3]) was 316 to 3160 nM. With `Cc1ccc(CNc2nccc3ccc(-c4ccc(F)cc4)cc23)nn1` [comparative Example A, reference compound], the IC50 in experiment [2] (in vitro assay as described for P2X3, read-out: activity on receptor P2X3 expressed as pIC50 (converted)) was greater than 3160 nM.

For `COc1cc(-c2ccc(F)cc2)cc2c(N[C@H](C)c3cnc(C(F)(F)F)nc3)cnnc12` [Example 7, (R)-6-(4-fluorophenyl)-8-methoxy-N-(1-(2-(trifluoromethyl)pyrimidin-5-yl)ethyl)cinnolin-4-amine], the IC50 in experiment [2] (setting [3]) is less than 316 nM.

Regarding `Cc1cnc(-c2ccc3nncc(N[C@H](C)c4cnc(C(F)(F)F)nc4)c3c2)s1` [Example 3, 6-(5-Methylthiazol-2-yl)-N-((1R)-1-(2-(trifluoromethyl)pyrimidin-5-yl)ethyl)cinnolin-4-amine], the IC50 in experiment [2] (setting [3]) was less than 316 nM.

Values taken from patent US20230416233A1, “(AZA)QUINOLINE 4-AMINES DERIVATIVES AS P2X3 INHIBITORS” (CHIESI FARMACEUTICI S.P.A., priority 2020, published 2023).
